Measurements published in patent publication US20170037028A1 (BAYER PHARMA AKTIENGESELLSCHAFT, priority 2013, published 2017).
Blank lines part the entries; values can stand above or below the compound they belong to.

Target: T1, GLUT1 (Homo sapiens, UniProt P11166)
T1 sequence (P11166 1-492): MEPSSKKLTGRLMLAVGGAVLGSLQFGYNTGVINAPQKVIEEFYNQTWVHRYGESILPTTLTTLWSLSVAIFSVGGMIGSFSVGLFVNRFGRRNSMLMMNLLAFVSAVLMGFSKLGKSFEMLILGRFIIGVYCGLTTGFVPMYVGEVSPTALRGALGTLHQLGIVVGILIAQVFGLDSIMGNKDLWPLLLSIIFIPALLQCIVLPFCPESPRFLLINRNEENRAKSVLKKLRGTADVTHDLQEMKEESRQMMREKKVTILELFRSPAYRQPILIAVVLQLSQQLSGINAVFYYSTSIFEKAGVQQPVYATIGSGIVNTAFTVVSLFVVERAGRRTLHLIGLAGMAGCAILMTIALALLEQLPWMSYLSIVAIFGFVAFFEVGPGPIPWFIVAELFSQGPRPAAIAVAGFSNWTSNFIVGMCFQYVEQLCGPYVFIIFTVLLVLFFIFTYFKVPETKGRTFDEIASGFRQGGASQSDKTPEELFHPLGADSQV
Assay: Indirect measurement of GLUT1 activity by quantification of intracellular ATP levels (glucose induced ATP increase)
Type: cell-based
Set-up: endogenous in cells; host or cells: DLD1 or CHO-K1
Conditions: read-out: IC50 regarding glucose induced ATP increase (GLUT1 inhibition)
Procedure, shortened: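 DLD1 or CHO-K1 cells were starved overnight in glucose-free medium with 1% FCS, then combined with an oxidative phosphorylation inhibitor. GLUT1 activity was read as glucose-induced ATP increase, GLUT2 as fructose-induced. Intracellular ATP was quantified by CellTiter-Glo luminescence.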

IC50: 98.7 nM
Structure (SMILES): Cc1nn(CC2CCN(S(=O)(=O)C(C)C)CC2)c(C)c1NC(=O)c1cc(C(N)=O)nc2ccccc12 [Example 1517]

IC50: 69.2 nM
Structure (SMILES): Cc1nn(CC2CCN(S(=O)(=O)C3CCCC3)CC2)c(C)c1NC(=O)c1cc(C(N)=O)nc2ccccc12 [Example 1518]

IC50: 644 nM
Structure (SMILES): Cc1nn(CC2CCN(S(=O)(=O)c3ccccc3)CC2)c(C)c1NC(=O)c1cc(C(N)=O)nc2ccccc12 [Example 1519]

IC50: 747 nM
Structure (SMILES): Cc1nonc1Cn1nc(C)c(NC(=O)c2cc(C(F)(F)F)nc3ccc(Br)cc23)c1C [Example 1520]

IC50: 1670 nM
Structure (SMILES): Cc1nn(Cc2noc(C(=O)N(C)C)n2)c(C)c1NC(=O)c1cc(C(N)=O)nc2ccccc12 [Example 1521]

IC50: 600 nM
Structure (SMILES): Cc1nn(Cc2noc(C(=O)N(C)C)n2)c(C)c1NC(=O)c1cc(C(F)(F)F)nc2ccc(Br)cc12 [Example 1522]

IC50: 4140 nM
Structure (SMILES): Cc1nn(Cc2nccn2C)c(C)c1NC(=O)c1cc(C(N)=O)nc2ccccc12 [Example 1523]

IC50: 556 nM
Structure (SMILES): COc1cc(C(=O)Nc2c(C)nn(Cc3ccn(C)n3)c2C)c2ccccc2n1 [Example 1526]

IC50: 228 nM
Structure (SMILES): COc1cc(C(=O)Nc2c(C)nn(Cc3cn4ccccc4n3)c2C)c2ccccc2n1 [Example 1527]

IC50: 402 nM
Structure (SMILES): Cc1c(NC(=O)c2cc(C(N)=O)nc3cc(F)ccc23)c(C(F)(F)F)nn1Cc1ncco1 [Example 1529]

IC50: 893 nM
Structure (SMILES): COc1cc(C(=O)Nc2c(C)nn(Cc3csc(N4CCOCC4)n3)c2C)c2ccccc2n1 [Example 1530]

IC50: 37.6 nM
Structure (SMILES): CCc1cc(Cn2nc(C)c(NC(=O)c3cc(C(N)=O)nc4ccccc34)c2C)on1 [Example 1531]

IC50: 16.1 nM
Structure (SMILES): CCc1cc(Cn2nc(C)c(NC(=O)c3cc(C(N)=O)nc4cc(F)ccc34)c2C)on1 [Example 1532]

IC50: 168 nM
Structure (SMILES): CCS(=O)(=O)N1CCC(Cn2nc(C)c(NC(=O)c3cc(C(F)(F)F)nc4ccc(Br)cc34)c2C)CC1 [Example 1533]

IC50: 22.5 nM
Structure (SMILES): CCc1nc(Cn2nc(C(F)(F)F)c(NC(=O)c3cc(C(N)=O)nc4ccccc34)c2C)no1 [Example 1535]

IC50: 79.1 nM
Structure (SMILES): CCc1noc(Cn2nc(C(F)(F)F)c(NC(=O)c3cc(C(N)=O)nc4ccccc34)c2C)n1 [Example 1536]

IC50: 275 nM
Structure (SMILES): Cc1c(NC(=O)c2cc(C(N)=O)nc3ccccc23)c(C(F)(F)F)nn1Cc1ncco1 [Example 1540]

IC50: 15.4 nM
Structure (SMILES): Cc1cc(Cn2nc(C)c(NC(=O)c3cc(C(N)=O)nc4cc(F)ccc34)c2C)no1 [Example 1541]

IC50: 43.1 nM
Structure (SMILES): CCS(=O)(=O)N1CCC(Cn2nc(C(F)(F)F)c(NC(=O)c3cc(C(N)=O)nc4cc(F)ccc34)c2C)CC1 [Example 1545]

IC50: 33.7 nM
Structure (SMILES): CCS(=O)(=O)N1CCC(Cn2nc(C(F)(F)F)c(NC(=O)c3cc(C(N)=O)nc4ccccc34)c2C)CC1 [Example 1546]

IC50: 34.8 nM
Structure (SMILES): Cc1c(NC(=O)c2cc(C(N)=O)nc3cc(F)ccc23)c(C(F)(F)F)nn1Cc1cc(C2CC2)on1 [Example 1550]

IC50: 194 nM
Structure (SMILES): Cc1c(NC(=O)c2cc(C(N)=O)nc3ccccc23)c(C(F)(F)F)nn1Cc1cc(C(C)C)no1 [Example 1552]

IC50: 159 nM
Structure (SMILES): Cc1c(NC(=O)c2cc(C(N)=O)nc3cc(F)ccc23)c(C(F)(F)F)nn1Cc1cc(C(C)C)no1 [Example 1553]

IC50: 116 nM
Structure (SMILES): Cc1c(NC(=O)c2cc(C(N)=O)nc3cc(F)c(Cl)cc23)c(C(F)(F)F)nn1Cc1cc(C(C)C)no1 [Example 1554]

IC50: 41.7 nM
Structure (SMILES): CCc1cc(Cn2nc(C(F)(F)F)c(NC(=O)c3cc(C(N)=O)nc4cc(F)ccc34)c2C)on1 [Example 1556]

IC50: 72.7 nM
Structure (SMILES): CNC(=O)c1nc(Cn2nc(C(F)(F)F)c(NC(=O)c3cc(C(N)=O)nc4cc(F)ccc34)c2C)no1 [Example 1559]

IC50: 14.2 nM
Structure (SMILES): Cc1nn(Cc2cc(C#N)no2)c(C)c1NC(=O)c1cc(C(N)=O)nc2cc(F)ccc12 [Example 1566]

IC50: 27.3 nM
Structure (SMILES): Cc1nc(Cn2nc(C)c(NC(=O)c3cc(C(N)=O)nc4ccccc34)c2C)cs1 [Example 1568]

More lines, now with the values behind:

Structure (SMILES): Cc1nn(Cc2nccn2C)c(C)c1NC(=O)c1cc(C(F)(F)F)nc2ccc(Br)cc12 [Example 1524]
IC50: 2020 nM

Structure (SMILES): COc1cc(C(=O)Nc2c(C)nn(CC3CNC(=O)O3)c2C)c2ccccc2n1 (centres unmarked) [Example 1525]
IC50: 4810 nM

Structure (SMILES): Cc1nn(Cc2cn3ccccc3n2)c(C)c1NC(=O)c1cc(C(F)(F)F)nc2ccc(Br)cc12 [Example 1528]
IC50: 59.4 nM

Structure (SMILES): CCS(=O)(=O)N1CCC(Cn2nc(C)c(NC(=O)c3cc(C(N)=O)nc4cc(F)ccc34)c2C)CC1 [Example 1534]
IC50: 19.7 nM

Structure (SMILES): CCc1noc(Cn2nc(C(F)(F)F)c(NC(=O)c3cc(C(N)=O)nc4cc(F)ccc34)c2C)n1 [Example 1537]
IC50: 185 nM

Structure (SMILES): Cc1cc(Cn2nc(C(F)(F)F)c(NC(=O)c3cc(C(N)=O)nc4ccccc34)c2C)no1 [Example 1538]
IC50: 73.1 nM

Structure (SMILES): Cc1cc(Cn2nc(C(F)(F)F)c(NC(=O)c3cc(C(N)=O)nc4cc(F)ccc34)c2C)no1 [Example 1539]
IC50: 47.3 nM

Structure (SMILES): Cc1cc(Cn2nc(C(F)(F)F)c(NC(=O)c3cc(C(N)=O)nc4cc(F)ccc34)c2C)on1 [Example 1542]
IC50: 84.9 nM

Structure (SMILES): Cc1cc(Cn2nc(C(F)(F)F)c(NC(=O)c3cc(C(N)=O)nc4ccccc34)c2C)on1 [Example 1543]
IC50: 112 nM

Structure (SMILES): CCc1noc(Cn2nc(C(F)(F)F)c(NC(=O)c3cc(C(N)=O)nc4cc(F)c(Cl)cc34)c2C)n1 [Example 1544]
IC50: 15.7 nM

Structure (SMILES): Cc1c(NC(=O)c2cc(C(N)=O)nc3cc(F)c(Cl)cc23)c(C(F)(F)F)nn1Cc1ncco1 [Example 1547]
IC50: 24 nM

Structure (SMILES): CCc1nc(Cn2nc(C(F)(F)F)c(NC(=O)c3cc(C(N)=O)nc4cc(F)ccc34)c2C)no1 [Example 1548]
IC50: 26.5 nM

Structure (SMILES): Cc1c(NC(=O)c2cc(C(N)=O)nc3ccccc23)c(C(F)(F)F)nn1Cc1cc(C2CC2)on1 [Example 1549]
IC50: 13.6 nM

Structure (SMILES): Cc1c(NC(=O)c2cc(C(N)=O)nc3cc(F)c(Cl)cc23)c(C(F)(F)F)nn1Cc1cc(C2CC2)on1 [Example 1551]
IC50: 11.1 nM

Structure (SMILES): CCc1cc(Cn2nc(C(F)(F)F)c(NC(=O)c3cc(C(N)=O)nc4ccccc34)c2C)on1 [Example 1555]
IC50: 18.4 nM

Structure (SMILES): CNC(=O)c1nc(Cn2nc(C(F)(F)F)c(NC(=O)c3cc(C(N)=O)nc4ccccc34)c2C)no1 [Example 1557]
IC50: 53.8 nM

Structure (SMILES): Cc1cc(Cn2nc(C)c(NC(=O)c3cc(C(N)=O)nc4ccccc34)c2C)on1 [Example 1560]
IC50: 39.8 nM

Structure (SMILES): Cc1cc(Cn2nc(C)c(NC(=O)c3cc(C(N)=O)nc4cc(F)ccc34)c2C)on1 [Example 1561]
IC50: 10.4 nM

Structure (SMILES): Cc1nn(Cc2cc(C(C)C)no2)c(C)c1NC(=O)c1cc(C(N)=O)nc2ccccc12 [Example 1562]
IC50: 55.9 nM

Structure (SMILES): Cc1nn(Cc2cc(C(C)C)no2)c(C)c1NC(=O)c1cc(C(N)=O)nc2cc(F)ccc12 [Example 1563]
IC50: 35.5 nM

Structure (SMILES): Cc1c(NC(=O)c2cc(C(=O)N3CCOCC3)nc3ccc(F)cc23)c(C(F)(F)F)nn1Cc1ccc(C#N)cc1 [Example 1564]
IC50: 112 nM

Structure (SMILES): Cc1c(NC(=O)c2cc(C(N)=O)nc3cccc(O)c23)c(C(F)(F)F)nn1Cc1ccc(C#N)cc1 [Example 1565]
IC50: 21 nM

Structure (SMILES): Cc1nn(Cc2cnn(C)c2C)c(C)c1NC(=O)c1cc(C(N)=O)nc2ccccc12 [Example 1567]
IC50: 84.4 nM

Structure (SMILES): Cc1nn(Cc2ccn(C)n2)c(C)c1NC(=O)c1cc(C(N)=O)nc2ccccc12 [Example 1569]
IC50: 67.5 nM

Structure (SMILES): CCc1noc(Cn2nc(C)c(NC(=O)c3cc(C(F)(F)F)nc4ccc(Br)cc34)c2C)n1 [Example 1570]
IC50: 48.2 nM
